Tested on: relapsed or refractory, rituximab-naive or -sensitive follicular B-cell NHL
Assay: Progression-free survival (PFS), Vc-R vs rituximab study, by biomarker
Format: in vivo, human
Excerpt: Non-Hodgkin lymphoma (NHL) encompasses several unique malignant lymphoid disease entities that vary in clinical behavior, morphologic appearance, immunologic, and molecular phenotype. […] A randomized, open-label, active-controlled, multicenter, multinational, prospective study to compare the efficacy and safety of the combination of bortezomib and rituximab (Vc-R) to single-agent rituximab in subjects who have relapsed or refractory, rituximab-naive or -sensitive follicular B-cell NHL was performed.
Subjects were centrally randomized to Treatment Groups A (Vc-R) or B (rituximab) in a 1:1 ratio taking into account the following stratification factors: • Follicular Lymphoma International Prognostic Index (FLIPI) score (low [0 or 1 factor], intermediate [2 factors], high [≧3 factors]); • Prior rituximab therapy (yes, no); • Time since last dose of anti-lymphoma therapy (≦1 year, >1 year); • Region (United States/Canada, European Union, Rest of World).
The following clinical endpoints were included in the analysis within each treatment group and an overall comparison was made with the biomarker-related endpoints: Progression-free survival, defined as the interval between the date of randomization and the date of progressive disease (PD) or death, whichever is first reported in the ITT population; overall survival; overall response rate (complete response [CR]+CR unconfirmed [CRu]+partial response [PR]); overall CR rate (CR+CRu); duration of response; time to next anti-lymphoma therapy; and treatment free interval.
For single-marker association analyses and pair-wise comparisons, a log rank test and Cox proportional hazard model was utilized for assessments of PFS, TTP, and OS between the treatment groups. Kaplan-Meier curves were utilized to estimate the distribution differences between groups in the time-to-event analyses. Comparison of the response rates between the treatment groups was conducted using the Fishers exact test. Single-marker association analyses were stratified by the covariates.
For pair-wise comparison analysis, biomarker pairs were formed by combinations of two markers. A log rank test was utilized for assessments of PFS, TTP, and OS between the treatment groups in the subpopulation defined by biomarker pairs. Kaplan-Meier curves were utilized to estimate the distribution differences between groups in the time-to-event analyses. Comparison of the response rates between the treatment groups was conducted using the Fishers exact test. Methods of Analysis for the multiple biomarker comparison models can be found in section 4.6.
The stratified log rank test and Cox proportional hazard model was utilized for assessments of PFS between the treatment groups. The Kaplan-Meier method was to be used to estimate the distribution of overall PFS for each treatment group in the biomarker population, and overall; stratified by expression level, SNP, or mutation (or covariate groups as noted above). The hazard ratio and 95% confidence interval was based on a stratified Cox's proportion hazard model with treatment as the explanatory variable. Analyses were done for the population overall and by treatment group, and each of these analyses were also stratified by the following factors if sufficient sample size existed: […]

Q: What does the source list for rituximab?
A: Median PFS (Vc − R vs R) (20S % NUCLEAR STAINING 30-90 + 20S INTENSITY CYTOPLASMIC SIGNAL >=3+, Excluded): 347 days; Median PFS (Vc − R vs R) (20S % NUCLEAR STAINING 30-90 + 20S INTENSITY CYTOPLASMIC SIGNAL >=3+, Selected): 280 days; Median PFS (Vc − R vs R) (20S % NUCLEAR STAINING 30-90 + 20S INTENSITY CYTOPLASMIC SIGNAL >=3+, Total): 345 days; Median PFS (Vc-R vs R) (AGEGRP <=65 + CD68 POSITIVE FOLLICULAR 0-50, Excluded): 427 days; Median PFS (Vc-R vs R) (AGEGRP <=65 + CD68 POSITIVE FOLLICULAR 0-50, Selected): 275 days; Median PFS (Vc-R vs R) (AGEGRP <=65 + CD68 POSITIVE FOLLICULAR 0-50, Total): 346 days; Median PFS (Vc − R vs R) (AGEGRP <=65 + CD68 POSITIVE PERIFOLLICULAR 0-50, Excluded): 351 days; Median PFS (Vc − R vs R) (AGEGRP <=65 + CD68 POSITIVE PERIFOLLICULAR 0-50, Selected): 281 days; Median PFS (Vc − R vs R) (AGEGRP <=65 + CD68 POSITIVE PERIFOLLICULAR 0-50, Total): 346 days; Median PFS (Vc − R vs R) (AGEGRP <=65 + P27 % NUCLEI POSITIVE 0-70, Excluded): 348 days; Median PFS (Vc − R vs R) (AGEGRP <=65 + P27 % NUCLEI POSITIVE 0-70, Selected): 279 days; Median PFS (Vc − R vs R) (AGEGRP <=65 + P27 % NUCLEI POSITIVE 0-70, Total): 345 days; PFS median (Biomarker Negative (all subjects without the pair), N = 238): 12.5 months; PFS median (Biomarker Positive (PSMB P11A heterozygote and CD68 Low), N = 118): 9.1 months; PFS median (CD68 OVERALL POSITIVE 0-25): 10.6 mo; PFS median (CD68 OVERALL POSITIVE 26-50): 9.3 mo; PFS median (CD68 POSITIVE FOLLICULAR 0-25): 9.3 mo; Median PFS (Vc − R vs R) (CD68 POSITIVE FOLLICULAR 0-50 + CD68 POSITIVE PERIFOLLICULAR 0-50, Excluded): 351 days; Median PFS (Vc − R vs R) (CD68 POSITIVE FOLLICULAR 0-50 + CD68 POSITIVE PERIFOLLICULAR 0-50, Selected): 282 days; Median PFS (Vc − R vs R) (CD68 POSITIVE FOLLICULAR 0-50 + CD68 POSITIVE PERIFOLLICULAR 0-50, Total): 346 days; Median PFS (Vc − R vs R) (CD68 POSITIVE FOLLICULAR 0-50 + P65 % POSITIVE CYTOPLASMIC SIGNAL >90%, Excluded): 486 days; Median PFS (Vc − R vs R) (CD68 POSITIVE FOLLICULAR 0-50 + P65 % POSITIVE CYTOPLASMIC SIGNAL >90%, Selected): 279 days; Median PFS (Vc − R vs R) (CD68 POSITIVE FOLLICULAR 0-50 + P65 % POSITIVE CYTOPLASMIC SIGNAL >90%, Total): 346 days; PFS median (CD68 POSITIVE FOLLICULAR 26-50): 9.1 mo; PFS median (CD68 Pos Follic (0-50) & P11A[C/G]**, first line (P 0.0025)): 8.5 mo; PFS median (CD68 Pos Follic (0-50) & P11A[C/G]**, second line (n.s.)): 9.2 mo; PFS (CD68 high): did better on rituximab alone; Median PFS (Vc-R vs R) (Excluded: 20S % NUCLEAR STAINING 30-90 and P65 % POSITIVE CYTOPLASMIC SIGNAL >90%): 419 days; Median PFS (Vc-R vs R) (Excluded: AGEGRP <=65 and CD68 OVERALL POSITIVE 0-50): 351 days; Median PFS (Vc-R vs R) (Excluded: AGEGRP <=65 and P65 % POSITIVE CYTOPLASMIC SIGNAL >90%): 414 days; Median PFS (Vc-R vs R) (Excluded: CD68 OVERALL POSITIVE 0-50 and P65 % POSITIVE C[…] >90%): 375 days; Median PFS (Vc-R vs R) (Excluded: FLIPI High and P65 % POSITIVE CYTOPLASMIC SIGNAL >90%): 378 days; Median PFS (Vc-R vs R) (Excluded: PRITUX NO and P65 % NUCLEAR STAINING 0): 346 days; Median PFS (Vc-R vs R) (Excluded: PSMB1/P11A C/G and ANNARBOR >=III): 375 days; Median PFS (Vc-R vs R) (Excluded: PSMB1/P11A C/G and P65 % NUCLEAR STAINING 0): 346 days; Median PFS (Vc − R vs R) (FLIPI High + P27 % NUCLEI POSITIVE 0-70, Excluded): 351 days; Median PFS (Vc − R vs R) (FLIPI High + P27 % NUCLEI POSITIVE 0-70, Selected): 212 days; Median PFS (Vc − R vs R) (FLIPI High + P27 % NUCLEI POSITIVE 0-70, Total): 345 days; PFS median (HI Tumor BD NO & CD68 OVERALL POSITIVE: 0-50): 16 mo; PFS median (HI Tumor BD NO & CD68 POSITIVE FOLLICULAR: 0-50): 13.8 mo; PFS median (P65 Cytoplasmic signal >90% & 1 prior treatment*, first line (P 0.0132)): 10.6 mo; PFS median (P65 Cytoplasmic signal >90% & 1 prior treatment*, second line (n.s.)): 8.9 mo; PFS median (P65 INTENSITY CYTOPLASMIC SIGNAL <=1+): 9.3 mo; PFS median (PSMB1/P11A C/G): 9.3 mo; PFS median (PSMB1/P11A C/G & 20S % POSITIVE CYTOPLASMIC SIGNAL: >90): 9.5 mo; PFS median (PSMB1/P11A C/G & Age group: <=65): 9.2 mo; PFS median (PSMB1/P11A C/G & CD68 POSITIVE FOLLICULAR: 0-50): 9.1 mo; PFS median (PSMB1/P11A C/G & CD68 POSITIVE PERIFOLLICULAR: >50): 9.2 mo; PFS median (PSMB1/P11A C/G & PSMB5/R24C C/T): 7.8 mo; PFS median (PSMB1/P11A C/G & Time since last Rx: >1 year): 10.7 mo; Median PFS (Vc-R vs R) (PSMB1/P11A C/G + 20S % NUCLEAR STAINING 30-90, Excluded): 346 days; Median PFS (Vc-R vs R) (PSMB1/P11A C/G + 20S % NUCLEAR STAINING 30-90, Selected): 275 days; Median PFS (Vc-R vs R) (PSMB1/P11A C/G + 20S % NUCLEAR STAINING 30-90, Total): 345 days; Median PFS (Vc-R vs R) (PSMB1/P11A C/G + 20S INTENSITY CYTOPLASMIC SIGNAL <=2+, Excluded): 345 days; Median PFS (Vc-R vs R) (PSMB1/P11A C/G + 20S INTENSITY CYTOPLASMIC SIGNAL <=2+, Selected): 278 days; Median PFS (Vc-R vs R) (PSMB1/P11A C/G + 20S INTENSITY CYTOPLASMIC SIGNAL <=2+, Total): 345 days; Median PFS (Vc-R vs R) (PSMB1/P11A C/G + AGEGRP <=65, Excluded): 348 days; Median PFS (Vc-R vs R) (PSMB1/P11A C/G + AGEGRP <=65, Selected): 279 days; Median PFS (Vc-R vs R) (PSMB1/P11A C/G + AGEGRP <=65, Total): 345 days; Median PFS (Vc − R vs R) (PSMB1/P11A C/G + CD68 OVERALL POSITIVE 0-50, Excluded): 348 days; Median PFS (Vc − R vs R) (PSMB1/P11A C/G + CD68 OVERALL POSITIVE 0-50, Selected): 278 days; Median PFS (Vc − R vs R) (PSMB1/P11A C/G + CD68 OVERALL POSITIVE 0-50, Total): 345 days; Median PFS (Vc-R vs R) (PSMB1/P11A C/G + P27 % NUCLEI POSITIVE 0-70, Excluded): 348 days; Median PFS (Vc-R vs R) (PSMB1/P11A C/G + P27 % NUCLEI POSITIVE 0-70, Selected): 277 days; Median PFS (Vc-R vs R) (PSMB1/P11A C/G + P27 % NUCLEI POSITIVE 0-70, Total): 338 days; Median PFS (Vc-R vs R) (PSMB1/P11A C/G + P27 SIGNAL INTENSITY >=2+, Excluded): 346 days; Median PFS (Vc-R vs R) (PSMB1/P11A C/G + P27 SIGNAL INTENSITY >=2+, Selected): 280 days; Median PFS (Vc-R vs R) (PSMB1/P11A C/G + P27 SIGNAL INTENSITY >=2+, Total): 338 days

— patent US9322066B2, “Predictors for cancer treatment” (priority 2011, dated 2016)
